We go through seven molecules from paper PMC9791652 (Journal of Medicinal Chemistry, 2022).

The conditions of data set [1]: mouse liver microsomes.
Data set [2] relates to Escherichia coliΔtolC (BW25113 ΔtolC). Briefly: organism not typed. The format is cell-based.
In the next data set the test system is H37Rv. It counts as cell-based, Mycobacterium tuberculosis.
The subject of data set [3] is noninfected zebrafish larvae. The following applies: data not shown.
Data set [4] deals with streptomycin starved 18b nonreplicating Mtb (ss18b-lux). The format is cell-based, Mycobacterium tuberculosis. The following applies: for drop in bacterial counts (cfu) of ss18b-lux: 7 days of exposure; for bactericidal activity against nonreplicating ss18b-lux by cfu counting: 7 days of antibiotic exposure.
The nature of a further data set: physchem. The following applies: pH 7.4.
The test system of data set [5] is M. marinum (expressing Wasabi) infected zebrafish larvae. The format is in vivo. The following applies: for lowest dose significantly prolonging survival of infected zebrafish: 4-day exposure in water, refreshed daily, 1 to 5 dpi.
The next data set deals with Mtb H37Rv ATP levels. In words: Impact of TriSLa exposure on Mtb ATP levels. The following applies: 24 h exposure. The format is cell-based, Mycobacterium tuberculosis.
The subject of data set [6] is Mtb H37Rv NADH/NAD+ ratio. In words: Impact of TriSLa exposure on Mtb NADH and NAD+ levels. The format is cell-based, Mycobacterium tuberculosis.

In general, MIC refers to the smallest concentration in the dilution series that meets the test's criterion for growth inhibition. A word on the logD: it is lipophilicity at a set pH, counting ionised and neutral species. A low value points to lower lipophilicity.

Each structure is given as a SMILES string. Converted amounts (≈) assume the structure as drawn. Like-named read-outs stand apart in the source and are kept apart here.

Regarding `CC(C)[C@H]1CO[C@]23CCN(Cc4ccccc4)C[C@H]2CCC(=O)N13` [Compound 1, (3S,7aR,11aR)-9-Benzyl-3-isopropyl-2,3,6,7,7a,8,10,11-octahydrooxazolo[2,3-j][1,6]naphthyridin-5-one], in [1], the “metabolic stability (in words)” value is listed as “high clearance”. Besides, the minimum inhibitory concentration (MIC) in [2] was > 100 µM.
As for `CC(C)[C@H]1CO[C@]23CCN(Cc4ccc(C(F)(F)F)cc4)C[C@H]2CCC(=O)N13` [Compound 11, (3S,7aR,11aR)-3-Isopropyl-9-[[4-(trifluoromethyl)phenyl]methyl]-2,3,6,7,7a,8,10,11-octahydrooxazolo[2,3-j][1,6]naphthyridin-5-one], in the data set with H37Rv, the “bactericidal activity by cfu at 1× MIC” value is listed as “bacteriostatic”, the “drop in cfu after 1 week” value is ~0.8 log and the “drop in cfu after 2 weeks” value is on record as ~2.0 log. This molecule returned an MIC in data set [2] of 100 µM (≈ 39.6 µg/mL). Moreover, the “toxicity in noninfected zebrafish larvae” value in [3] is reported as “did not interfere with larval development or show any toxicity”. In addition, in data set [4], the ss18b-lux luminescence signal entry is “time-dependent decrease in luminescence” and the “bactericidal activity against nonreplicating ss18b-lux by cfu counting” value (shortened to “bactericidal activity … by cfu counting”) is on record as “concentration-dependent killing”. In data set [4] (4.8 μM), the “drop in bacterial counts (cfu) of ss18b-lux” value (“drop in bacterial counts (cfu)” for short) is recorded as 1–2 log. Further, the log distribution coefficient (logD) in “physchem” came out at 3.9. In addition, in data set [5], the “lowest dose significantly prolonging survival of infected zebrafish” value turned out to be 0.3 µM. In the data set with Mtb H37Rv ATP levels, the “bacterial ATP concentrations” value is recorded as “concentration-dependent shutdown in bacterial ATP concentrations”.
For the molecule `CC(C)[C@H]1CO[C@]23CCN(Cc4ccc(OC(F)(F)F)cc4)C[C@H]2CCC(=O)N13` [Compound 12, (3S,7aR,11aR)-3-Isopropyl-9-[[4-(trifluoromethoxy)phenyl]methyl]-2,3,6,7,7a,8,10,11-octahydrooxazolo[2,3-j][1,6]naphthyridin-5-one], in the data set with H37Rv, the “bactericidal activity by cfu at 1× MIC” value is on record as “bacteriostatic”, the “drop in cfu after 1 week” value is ~0.8 log and the “drop in cfu after 2 weeks” value is ~2.0 log. In data set [2], it took 100 µM (≈ 41.2 µg/mL) to inhibit growth (MIC). In addition, the “toxicity in noninfected zebrafish larvae” value in data set [3] is “did not interfere with larval development or show any toxicity”. In addition, in data set [4], the ss18b-lux luminescence signal result is reported as “time-dependent decrease in luminescence” and the “bactericidal activity … by cfu counting” value is listed as “concentration-dependent killing”. In addition, the “drop in bacterial counts (cfu)” value in data set [4] (4.8 μM) is listed as 1–2 log. The pH-dependent lipophilicity (logD) in “physchem” came to 3.4. In addition, the “bacterial load (fluorescence pixel count) in infected zebrafish” value in data set [5] (0.5 μg/mL ([…]), 2–4 days of exposure) was “bacteriostatic”. In addition, the “bacterial load (fluorescence pixel count) in infected zebrafish” value in [5] (2 μg/mL (4.8 μM), between 2 and 4 days of exposure) is recorded as “significant decrease in the bacterial burden”. The “infection foci in fluorescence images” value in data set [5] (0.25 to 2 μg/mL (0.6–4.8 μM), 2 or 4-day treatment) is “fewer and less intense infection foci”. Besides, in data set [5], the “lowest dose significantly prolonging survival of infected zebrafish” value turned out to be 0.3 µM. In addition, the “bacterial ATP concentrations” value in the data set on Mtb H37Rv ATP levels is reported as “concentration-dependent shutdown in bacterial ATP concentrations”.
In the case of `CC(C)[C@H]1CO[C@]23CCN(Cc4ccc(C(F)(F)F)nc4)C[C@H]2CCC(=O)N13` [Compound 13, (3S,7aR,11aR)-3-Isopropyl-9-[[6-(trifluoromethyl)-3-pyridyl]methyl]-2,3,6,7,7a,8,10,11-octahydrooxazolo[2,3-j][1,6]naphthyridin-5-one], the “toxicity in noninfected zebrafish larvae” value in data set [3] is “did not interfere with larval development or show any toxicity”. Besides, the “lowest dose significantly prolonging survival of infected zebrafish” value in data set [5] was found to be 1.2 µM.
For the molecule `COc1nc2ccc(Br)cc2cc1[C@@H](c1ccccc1)[C@@](O)(CCN(C)C)c1cccc2ccccc12` [bedaquiline], the “bactericidal activity by cfu at 1× and 2× MIC” value in the data set on H37Rv (H37Rv, 1× and 2× MIC (250 and 500 nM), 2 week exposure period) is “largely bacteriostatic”. Moreover, in data set [4], the ss18b-lux luminescence signal result is “time-dependent decrease in luminescence” and the “bactericidal activity … by cfu counting” value is recorded as “bactericidal”. In addition, the “drop in bacterial counts (cfu)” value in data set [4] (1 μM, stated as similar to 11 and 12 at 4.8 μM) is reported as 1–2 log. Further, the “Mtb NADH/NAD+ ratio relative to untreated bacteria” value in data set [6] is recorded as “increase in the NADH/NAD^+ ratio”. For the same molecule, the “bacterial ATP concentrations” value in the data set with Mtb H37Rv ATP levels is listed as “concentration-dependent shutdown in bacterial ATP concentrations”.
In the case of `NNC(=O)c1ccncc1` [isoniazid], in data set [4], the ss18b-lux luminescence signal entry was “increase in luminescence” and the “bactericidal activity … by cfu counting” value is reported as “no significant bactericidal activity”.
For `CO[C@H]1/C=C/O[C@@]2(C)Oc3c(C)c(O)c4c(O)c(c(/C=N/N5CCN(C)CC5)c(O)c4c3C2=O)NC(=O)/C(C)=C\C=C\[C@H](C)[C@H](O)[C@@H](C)[C@@H](O)[C@@H](C)[C@H](OC(C)=O)[C@@H]1C` [rifampicin], in [4], the ss18b-lux luminescence signal result was “time-dependent decrease in luminescence” and the “bactericidal activity … by cfu counting” value is “bactericidal”. Besides, the “drop in bacterial counts (cfu)” value in [4] (0.6 μM, stated as similar to 11 and 12 at 4.8 μM) is reported as 1–2 log. Moreover, in data set [6], the “Mtb NADH/NAD+ ratio relative to untreated bacteria” value is recorded as “decrease in NADH/NAD^+”.
